How the values were obtained:
[1] = biological target: T1, α2A adrenergic receptor (α2AAR) (Mus musculus, UniProt Q01338); experiment: competition radioligand binding with 3H-RX821002
T1 sequence (Q01338 1-465): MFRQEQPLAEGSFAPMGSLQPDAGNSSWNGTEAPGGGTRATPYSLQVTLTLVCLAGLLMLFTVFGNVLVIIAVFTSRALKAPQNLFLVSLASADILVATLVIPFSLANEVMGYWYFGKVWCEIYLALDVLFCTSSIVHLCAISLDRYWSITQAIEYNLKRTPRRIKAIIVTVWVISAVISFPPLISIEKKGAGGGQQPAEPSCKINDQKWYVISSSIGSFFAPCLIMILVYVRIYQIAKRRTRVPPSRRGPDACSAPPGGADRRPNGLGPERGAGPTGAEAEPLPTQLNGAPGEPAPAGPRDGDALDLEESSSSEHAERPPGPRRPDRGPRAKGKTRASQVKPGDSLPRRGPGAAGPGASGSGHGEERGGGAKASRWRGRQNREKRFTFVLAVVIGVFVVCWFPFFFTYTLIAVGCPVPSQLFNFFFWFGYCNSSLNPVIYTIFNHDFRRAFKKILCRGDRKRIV

[2] = biological target: T1, α2A adrenergic receptor (α2AAR); experiment: […]GTPγS binding, […] NE, nearly two-fold induction; type: cell-based
[3] = biological target: T1, α2A adrenergic receptor (α2AAR); experiment: radioligand of the competition binding assay

## CN(C)CCCN1c2ccccc2CCc2ccccc21 [IMI, imipramine]
[1]
  Ki: 5.07 µM

## CN(C)CCC=C1c2ccccc2CCc2ccccc21 [AMI, amitriptyline]
[1]
  Ki: 0.33 µM

## NC[C@H](O)c1ccc(O)c(O)c1 [NE, norepinephrine]
[2]
  [35S]GTPγS binding, 10 μM NE, nearly two-fold induction: G protein coupling response by α2AARs is seen only in response the endogenous agonist NE, which drives a nearly two-fold induction

## COC1(C2=NCCN2)COc2ccccc2O1 (centres unmarked) [RX821002]
[3]
  radioligand of the competition binding assay: the radioligand was a ^3H-labeled form of the α2AR antagonist RX821002

## CN(C)CCC[C@@]1(c2ccc(F)cc2)OCc2cc(C#N)ccc21 [ESC, escitalopram]
[1]
  Ki: 79.4 µM
